Test results reported in patent US8729089B2 (Gilead Sciences, Inc., priority 2006, dated 2014).

What was measured:
[1] = system: HCV replicon in human hepatoma Huh-7 cell line; assay: Anti-HCV replicon assay (EC50, luciferase); assay type: cell-based; conditions: Hepatitis C virus, Huh-7, 72 h
Method: (§1) The anti-HCV activity of the pyrido[3,2-d]pyrimidine derivatives of this invention was tested in a human hepatoma Huh-7 cell line harboring a HCV replicon. The assay comprised the following steps:
(§2) Step 1: Compound Preparation and Serial Dilution
(§3) • 1. for water soluble pyrido[3,2-d]pyrimidine derivatives, a volume of 500 μL of solution in cell media (DMEM, 10% FBS, P/S, L-Glutamine) was prepared with a concentration being twice the concentration of the starting final serial dilution concentration. A volume of 150 μL of the solution was added to the pre-specified wells in column 1 of a 96-well cell culture plate (PerkinElmer, white plate, cat. #6005181, for EC50 assay; black plate, cat. #6005182 for CC50 assay). The rest of the plate, columns 2-12, was filled with 100 μL of cell media. The plate was then placed on a Precision 2000 Workstation to start the serial dilution. Compounds were diluted three times each step from column 1 to column 10. Column 11 was used as a blank control (no compound added). • 2. for pyrido[3,2-d]pyrimidine derivatives requiring DMSO to dissolve, serial dilution is performed in 50% DMSO in a 384-well plate. A solution containing a compound at 100-fold concentration of the starting final serial dilution concentration was prepared in 50% DMSO and added to the pre-specified wells in column 1 of a polypropylene 384-well plate. The plate was then placed on a Precision 2000 Workstation to start the serial dilution. After the serial dilution, a volume of 2 μL of the solution was transferred from the 384-well plate to a 96-well cell culture plate containing 100 μL of cell media on a Biomek FX Workstation. The DMSO concentration in the final assay condition was 0.5% after cells are added to the plate and the total volume in each well is brought to 200 μL.
(§4) Step 2: to each well of the serial dilution plate prepared above, 100 μL of cell media containing 6000 suspended Huh-7 HCV replicon cells was added with a Multidrop workstation. The plates were incubated for 3 days at 37° C. with 5% CO2.
(§5) • a) for the EC50 assay, the media in a 96-well cell culture plate was aspirated with a Biotek EL405 plate-washer. A volume of 200 μL of a solution containing a 1:1 mixture of cell-lysis buffer (Promega, Luciferase Cell Culture Lysis 5× Reagent, cat. #E1531) and luciferase substrate solution (Promega, Luciferase Assay, cat.#E4550) was added to each well of the plate with Multidrop. The plate was incubated for 30 minutes at room temperature before the luminescence signal was measured with a TopCount plate-reader. • b) for the CC50 assay, a volume of 100 μL of pre-mixed CellTiter-Glo (Promega, cat.#G7572) solution is added directly to the cell culture in each well of the plate and the luminescence signal is measured with a TopCount plate-reader after 10 minutes of incubation at room temperature.

[2] = CC50 assay (CellTiter-Glo) in Huh-7 HCV replicon cells; assay type: cell-based, human; conditions: human, 3 days incubation, CellTiter-Glo readout
Method: as §1, §2, §3, §4, §5

Compound | EC50 [1] [µM] | CC50 at 3 days [2] [µM]
CC(C)Nc1nc(Nc2ccc(F)cc2)nc2ccc(-c3ccc(F)cc3)nc12 [Example 49, 6-(4-Fluoro-phenyl)-N4-isopropyl-N2-(4-fluoro-phenyl)-pyrido[3,2-d]pyrimidine-2,4-diamine] | 0.25 to 2 | > 25
CC(C)Nc1nc(Nc2ccccc2)nc2ccc(-c3ccc(F)cc3)nc12 [Example 50, 6-(4-Fluoro-phenyl)-N4-isopropyl-N2-phenyl-pyrido[3,2-d]pyrimidine-2,4-diamine] | 0.25 to 2 | > 25
CN(C)c1nc(NCc2ccc(F)cc2)nc2ccc(-c3ccc(F)cc3)nc12 [Example 51, 6-(4-Fluoro-phenyl)-N4-(N,N-dimethyl)-N2-(4-fluoro-benzyl)-pyrido[3,2-d]pyrimidine-2,4-diamine] | 0.25 to 2 | > 25
Cc1ccc(Nc2nc(NC(C)C)c3nc(-c4ccc(F)cc4)ccc3n2)nn1 [Example 52, 6-(4-Fluoro-phenyl)-N4-isopropyl-N2-(6-methyl-pyridazin-3-yl)-pyrido[3,2-d]pyrimidine-2,4-diamine] | 0.25 to 2 | 5 to 25
CC(C)Nc1nc(NCc2ccccn2)nc2ccc(-c3ccc(F)cc3)nc12 [Example 53, 6-(4-Fluoro-phenyl)-N4-isopropyl-N2-pyridin-2-ylmethyl-pyrido[3,2-d]pyrimidine-2,4-diamine] | 0.1 to 0.25 | 5 to 25
CC(C)Nc1nc(NCc2cccnc2)nc2ccc(-c3ccc(F)cc3)nc12 [Example 54, 6-(4-Fluoro-phenyl)-N4-isopropyl-N2-pyridin-3-ylmethyl-pyrido[3,2-d]pyrimidine-2,4-diamine] | 0.1 to 0.25 | 5 to 25
CC(C)Nc1nc(NCC(F)(F)F)nc2ccc(-c3ccc(F)cc3)nc12 [Example 55, 6-(4-Fluoro-phenyl)-N4-isopropyl-N2-(2,2,2-trifluoro-ethyl)-pyrido[3,2-d]pyrimidine-2,4-diamine] | < 0.1 | 5 to 25
CC(C)Nc1nc(NCCN2CCOCC2)nc2ccc(-c3ccc(F)cc3)nc12 [Example 56, 6-(4-Fluoro-phenyl)-N4-isopropyl-N2-(2-morpholin-4-yl-ethyl)-pyrido[3,2-d]pyrimidine-2,4-diamine] | 0.25 to 2 | 5 to 25
CC(C)Nc1nc(NCC(F)F)nc2ccc(-c3ccc(F)cc3)nc12 [Example 57, N2-(2,2-Difluoro-ethyl)-6-(4-fluoro-phenyl)-N4-isopropyl-pyrido[3,2-d]pyrimidine-2,4-diamine] | 0.25 to 2 | < 5
COCCNc1nc(NC(C)C)c2nc(-c3ccc(F)cc3)ccc2n1 [Example 58, 6-(4-Fluoro-phenyl)-N4-isopropyl-N2-(2-methoxy-ethyl)-pyrido[3,2-d]pyrimidine-2,4-diamine] | 0.25 to 2 | < 5
CCN(CC)c1nc(NCc2ccc(S(N)(=O)=O)cc2)nc2ccc(-c3ccc(F)cc3)nc12 [Example 59, 4-{[4-Diethylamino-6-(4-fluoro-phenyl)-pyrido[3,2-d]pyrimidin-2-ylamino]-methyl}-benzenesulfonamide] | < 0.1 | 5 to 25
Fc1ccc(-c2ccc3nc(NCC(F)(F)F)nc(NCC(F)(F)F)c3n2)cc1 [Example 60, 6-(4-Fluoro-phenyl)-2,4-bis(2,2,2-trifluoro-ethylamino)-pyrido[3,2-d]pyrimidine] | < 0.1 | > 25
CCOc1nc(NCc2ccc(F)cc2)nc2ccc(-c3cnc(N)cn3)nc12 [Example 62, [6-(5-Amino-pyrazin-2-yl)-4-ethoxy-pyrido[3,2-d]pyrimidin-2-yl]-(4-fluoro-benzyl)-amine] | < 0.1 | > 25
CCOc1nc(NCc2ccc(F)cc2)nc2ccc(-c3ccc(C(=O)NCCN(C)C)cc3)nc12 [Example 63, N-(2-Dimethylamino-ethyl)-4-[4-ethoxy-2-(4-fluoro-benzylamino)-pyrido[3,2-d]pyrimidin-6-yl]-benzamide] | < 0.1 | < 5
CCOc1nc(NCc2ccc(F)cc2)nc2ccc(-c3ccc(F)c(Cl)c3)nc12 [Example 64, [6-(3-Chloro-4-fluoro-phenyl)-4-ethoxy-pyrido[3,2-d]pyrimidin-2-yl]-(4-fluoro-benzyl)-amine] | < 0.1 | 5 to 25
CCOc1nc(NCc2ccc(F)cc2)nc2ccc(-c3ccc(C(=O)NC4CC4)cc3)nc12 [Example 65, N-Cyclopropyl-4-[4-ethoxy-2-(4-fluoro-benzylamino)-pyrido[3,2-d]pyrimidin-6-yl]-benzamide] | < 0.1 | > 25
CCOc1nc(NCc2ccc(F)cc2)nc2ccc(-c3cccc(NS(C)(=O)=O)c3)nc12 [Example 66, N-{3-[4-Ethoxy-2-(4-fluoro-benzylamino)-pyrido[3,2-d]pyrimidin-6-yl]-phenyl}-methanesulfonamide] | < 0.1 | < 5
CCOc1nc(NCc2ccc(F)cc2)nc2ccc(-c3ccc(NC(=O)C4CC4)cc3)nc12 [Example 67, Cyclopropanecarboxylic acid {4-[4-ethoxy-2-(4-fluoro-benzylamino)-pyrido[3,2-d]pyrimidin-6-yl]-phenyl}-amide] | < 0.1 | 5 to 25
CCOc1nc(NCc2ccc(F)cc2)nc2ccc(-c3ccc(F)c(S(N)(=O)=O)c3)nc12 [Example 68, 5-[4-Ethoxy-2-(4-fluoro-benzylamino)-pyrido[3,2-d]pyrimidin-6-yl]-2-fluoro-benzenesulfonamide] | < 0.1 | 5 to 25
CCOc1nc(NCc2ccc(F)cc2)nc2ccc(-c3ccc(NC(=O)CO)cc3)nc12 [Example 69, N-{4-[4-Ethoxy-2-(4-fluoro-benzylamino)-pyrido[3,2-d]pyrimidin-6-yl]-phenyl}-2-hydroxy-acetamide] | < 0.1 | > 25
CCOc1nc(NCc2ccc(F)cc2)nc2ccc(-c3ccc(NC(=O)CN)cc3)nc12 [Example 70, 2-Amino-N-{4-[4-ethoxy-2-(4-fluoro-benzylamino)-pyrido[3,2-d]pyrimidin-6-yl]-phenyl}-acetamide] | < 0.1 | < 5
CCOc1nc(NCc2ccc(F)cc2)nc2ccc(-c3ccc(NC(=O)NCCN4CCOCC4)cc3)nc12 [Example 71, 1-{4-[4-Ethoxy-2-(4-fluoro-benzylamino)-pyrido[3,2-d]pyrimidin-6-yl]-phenyl}-3-(2-morpholin-4-yl-ethyl)-urea] | < 0.1 | < 5
CCOc1nc(NCc2ccc(F)cc2)nc2ccc(-c3ccc(NC(=O)N4CCOCC4)cc3)nc12 [Example 72, Morpholine-4-carboxylic acid {4-[4-ethoxy-2-(4-fluoro-benzylamino)-pyrido[3,2-d]pyrimidin-6-yl]-phenyl}-amide] | < 0.1 | 5 to 25
CCOc1nc(NCc2ccc(F)cc2)nc2ccc(-c3ccc(NC(=O)N4CCCC4)cc3)nc12 [Example 73, Pyrrolidine-1-carboxylic acid {4-[4-ethoxy-2-(4-fluoro-benzylamino)-pyrido[3,2-d]pyrimidin-6-yl]-phenyl}-amide] | < 0.1 | 5 to 25
CCOc1nc(NCc2ccc(F)cc2)nc2ccc(-c3ccc(NC(=O)NC4CC4)cc3)nc12 [Example 74, 1-Cyclopropyl-3-{4-[4-ethoxy-2-(4-fluoro-benzylamino)-pyrido[3,2-d]pyrimidin-6-yl]-phenyl}-urea] | < 0.1 | 5 to 25
